This note sets out measurements from US5576174A, “Catalytic antibody with primary amine cofactor” (The Scripps Research Institute, priority 1995, dated 1996).

Test [1] concerns catalytic antibody 72D4 (anti-2, monoclonal antibody raised against quaternary piperidinium hapten 2). Nature of the test: Antibody 72D4 catalysed aldol addition of acetone to aldehyde 10a giving 11a, amine 7 as cofactor (RP-HPLC). The test is classed as biochemical. As to conditions: for Km: random bimolecular model for amine 7 and acetone; for effective molarity kcat/kapp (7): versus background reaction catalysed by 7 alone, aldehyde 10a at 200 mM. The procedure:
The aldol reaction of 10a and acetone to 11a with amine 7 as cofactor was followed by direct measurement of the formation of 11a by reverse-phase HPLC. The observed background reaction was first order in acetone (0.5% to 10% v/v) and aldehyde 10a (100-2000 mM), and was also first order in catalyst, either the amine cofactor 7 (50-1500 mM) as free base or hydroxide. The corresponding rate constants are kapp (7) (third order) and kapp (OH^-) (second order) for the apparent rate constant for each process at different pH, and k(7) and kOH^- are the third order rate constants for catalysis by amine 7 as free base and hydroxide, respectively (FIG. 1).
For acetone and aldehyde 10a, the background kuncat is the second order rate constant of their apparent bimolecular reaction, catalyzed by both hydroxide and amine 7 ([7]=0.2 mM and 0.4 mM, respectively).
Aldehydes 10a-10e were used as 25 mM stock solutions in 1:1 acetonitrile/water of the RP-HPLC purified samples. Cofactor 7 was used as 25 mM stock solution in pure water of the RP-HPLC purified trifluoroacetate salt. Antibody 72D4 was purified to homogeneity (SDS PAGE) by ion exchange and Protein G chromatography as described before,^4a at 8-12 mg/mL stock solutions in either bicine (50 mM, pH 8.0) or phosphate (50 mM, pH 7.4) with 100 mM NaCl.
The setup for the kinetics of FIG. 2 is representative: a stock solution (1.8 mL) containing the antibody ([…]) and acetone (1.11% v/v) in 50 mM bicine, 100 mM NaCl, pH 8.0 was separated into four portions of […]. To each was added 3.6 mL of a 25 mM stock solution of each of the aldehydes 10a to 10d. Each […] portion was further separated into four 90 mL portions and 10 mL of solutions of amine 7 in 50 mM bicine, 100 mM NaCl (1 mM, 2 mM, 4 mM, 8 mM) were added. Finally, 50 mL of each 100 mL sample was added to 0.5 mL of a 25 mM stock solution of hapten 12 in water. In each manipulation, the samples were vigorously shaken using a Vortex shaker to ensure homogeneity.

Test [2] shares this test system. Kind of test: Antibody 72D4 catalysed formation of α-aminonitrile 17 from amine 7, acetone and cyanide. In kind it is biochemical.
Method: Conditions: 50 mM bicine, 0.2M NaCN, pH 9.0, 20° C. […] The reaction was initiated by addition of a concentrated stock solution of either amine 7 or buffered NaCN (no difference was noted). As above, pairs of identical antibody solutions, with and without hapten 12 as inhibitor, were used for measuring the background and catalyzed reaction rates, respectively. 15 mL samples were quenched at 45 sec intervals by mixing with 15 mL 0.5N TFA in water, immediately frozen, and later analyzed by RP-HPLC (C-18 as above, 92.5% H2 O, 7.5% CH3 CN, tR (17)=7.8 minutes) against an internal standard (4-hydroxy-benzoic acid, tR =9.4 minutes). […] The background rate kuncat was derived from the inhibited samples (V vs. [S], 6 points, r^2 =1.0). KM and Vmax were obtained from the Lineweaver-Burk plot of 1/V vs. 1/[S] as above (50, 100, 200, 400, 800, 1600 mM 7, 6 points, r^2 =0.98).

Turning to `CC(=O)Nc1ccc(CC(C)C=O)cc1` (racemic) [aldehyde 10a, 4-(3'-oxo-2'-methyl-prop-1'-yl)-acetanilide], the “rate acceleration kcat/kuncat (aldehyde 10a)” value in test [1] (apparent effective molarity, aldehyde 10a varied, [7]=0.4 mM, table 1) worked out at 102 M. For the same molecule, the kcat in test [1] (pH 8.0, antibody-acetone-amine complex reacting with aldehyde 10a (200 mM fixed)) amounted to 0.014 M⁻¹ s⁻¹; in test [1] (pH 9.0, antibody-acetone-amine complex reacting with aldehyde 10a) it was 0.053 M⁻¹ s⁻¹.

In the case of `CC(C)=O` [acetone], the “rate acceleration kcat/kuncat (acetone)” value in test [1] (apparent effective molarity, acetone varied, [7]=0.2 mM, table 1) is 123 M. For the same molecule, the Michaelis constant (Km) in test [1] (pH 8.0, 200 mM fixed aldehyde 10a, read-out: KM (acetone)) stood at 19000 µM.

Take `NCc1ccc(C(=O)NCCO)cc1` [amine 7, N(hydroxyethyl)-4(aminomethyl)-benzamide]: the Michaelis constant (Km) worked out at 45 µM in test [1] (pH 8.0, 200 mM fixed aldehyde 10a, read-out: KM (7)); 95 µM in test [1] (pH 9.0, read-out: KM (7)); 130 µM in test [2] (pH 9.0, 1% v/v acetone, 0.2M CN-, 20° C., amine 7 varied 50-1600 mM). For the same molecule, the “effective molarity kcat/kapp (7)” value in test [1] (pH 8.0) was 370 M; in test [1] (pH 9), 440 M. Also, the “rate acceleration kcat/kuncat (cofactor 7)” value in test [1] (specific activation of the cofactor upon binding to the antibody, table 1) stood at 950. In addition, the kcat in test [2] (pH 9.0, 1% v/v acetone, 0.2M CN-, 20° C., amine 7 varied) worked out at 0.012 s⁻¹.

Regarding `C[N+]1(Cc2ccc(C(=O)NCCO)cc2)CCCCC1` [hapten 12, reference compound], the “inhibition of catalytic activity by addition of hapten 12” value in test [1] (250 mM hapten 12 in the assay set-up) is given as “quantitatively inhibited”. For the same molecule, in test [2] (formation of α-aminonitrile 17), the “inhibition of catalysis by hapten 12” value is “quantitatively inhibited”.

In general, Km refers to the substrate concentration at which the rate is half of its maximum.
